{"source": "paper PMC7901646", "about": "“Pyrrolo[2′,3′:3,4]cyclohepta[1,2-d][1,2]oxazoles, a New Class of Antimitotic Agents Active against Multiple Malignant Cell Types” (Journal of Medicinal Chemistry, 2020)", "format_in_all_cases": "cell-based", "key": {"UACC-257": {"system": "UACC-257", "assay": "NCI-60 screen", "settings": "Homo sapiens, Melanoma", "summary_of_the_method": "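Single-dose 10^–5 M; full NCI-60 human tumour cell line panel, nine cancer types.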"}, "cdc25c": {"system": "cdc25c", "assay": "Western blot, G2/M checkpoint proteins", "settings": "HeLa, 0.5 μM", "procedure": "(§1) Figure 6 Effects of 66 on G2/M checkpoint proteins. HeLa cells were treated with 0.1 or 0.5 μM compound 66 for 24 or 48 h. The cells were harvested and lysed for the detection of cdc25c, p-cdc2^Y15, and cyclin B expression by Western blot analysis. To confirm equal protein loading, each membrane was stripped and reprobed with anti-GAPDH antibody. The relative expression of proteins was analyzed by scanning densitometry using ImageJ software and reported as a ratio protein/GAPDH.\n(§2) HeLa cells were incubated in the presence of the test compound and, after different times, were collected, centrifuged, and washed two times with ice cold PBS. The pellet was resuspended in lysis buffer. After the cells were lysed on ice for 30 min, lysates were centrifuged at 15 000g at 4 °C for 10 min. The protein concentration in the supernatant was determined using the BCA protein assay reagents (Pierce, Italy). Equal amounts of protein (10 μg) were resolved using sodium dodecyl sulfate–polyacrylamide gel electrophoresis (Criterion Precast, BioRad, Italy) and transferred to a PVDF Hybond-P membrane (GE Healthcare). Membranes were blocked with a bovine serum albumin solution (5% in Tween PBS 1×), and the membranes were gently rotated overnight at 4 °C in the albumin solution. Membranes were then incubated with primary antibodies against PARP cleaved fragment, cdc25c, cyclin B, p-cdc2^Tyr15, XIAP, and Mcl-1 (all from Cell Signaling) or GAPDH (Sigma-Aldrich) for 2 h at room temperature. Membranes were next incubated with peroxidase labeled secondary antibodies for 1 h. All membranes were visualized using ECL Select (GE Healthcare), and images were acquired using an Uvitec-Alliance imaging system (Uvitec, Cambridge, U.K.). To ensure equal protein loading, each membrane was stripped and reprobed with anti-GAPDH antibody. To obtain relative quantitative data, ImageJ software (NIH, USA) was used for scanning densitometry analysis of Western blots."}, "cyclin B1": {"system": "cyclin B1", "assay": "Western blot, G2/M checkpoint proteins", "settings": "HeLa, 24 h, 0.5 μM", "procedure": "as §1, §2"}, "phosphorylated cdc2": {"system": "phosphorylated cdc2", "assay": "Western blot, G2/M checkpoint proteins", "settings": "HeLa, after both 24 and 48 h", "procedure": "as §1, §2"}, "HeLa cells [1]": {"system": "HeLa cells", "assay": "Annexin-V/PI apoptosis assay", "procedure": "To analyze the mode of cell death induced by compound 66 in HeLa cells, we utilized a double labeling assay of the cells with annexin-V and PI. This procedure, through a flow cytometric analysis, distinguishes four different cell populations: live cells (annexin-V^–/PI^–), early apoptotic cells (annexin-V^+/PI^–), late apoptotic cells (annexin-V^+/PI^+), and necrotic cells (annexin-V^–/PI^+).\nCell death was determined by flow cytometry of cells double stained with annexin V/FITC and PI. The Coulter Cytomics FC500 (Beckman Coulter) was used to measure the surface exposure of phosphatidylserine on apoptotic cells according to the manufacturer’s instructions (Annexin-V Fluos, Roche Diagnostics)."}, "HeLa cells [2]": {"system": "HeLa cells", "assay": "Mitochondrial membrane potential (JC-1)", "settings": "0.1 and 0.5 μM, 24 or 48 h", "procedure": "The mitochondrial membrane potential was measured with the lipophilic cationic dye 5,5′,6,6′ tetrachlo-1,1′,3,3′-tetraethylbenzimidazolcarbocyanine (JC-1) (Molecular Probes), as described.[73] The method is based on the ability of this fluorescent probe to enter selectively into mitochondria since it changes reversibly its color from green to red as membrane potential increases. This property is due to the reversible formation of JC-1 aggregates upon membrane polarization that causes a shift in the emitted light from 530 nm (i.e., emission of JC-1 monomeric form) to 590 nm (emission of JC-1-aggregate) when excited at 490 nm."}, "HeLa cells [3]": {"system": "HeLa cells", "assay": "ROS production (H2-DCFDA)", "settings": "48 h, 0.5 μM", "procedure": "One consequence of mitochondrial depolarization caused by the release of cytochrome c into the cytoplasm is the increase in reactive oxygen species (ROS).[65] Therefore, we wanted to evaluate whether ROS production increased following treatment with compound 66. To do this, we used the fluorescent probe 2,7-dichlorodihydrofluorescein diacetate (H2-DCFDA), which is oxidized to the fluorescent compound dichlorofluorescein (DCF) upon ROS production.\nThe production of ROS was measured by flow cytometry using H2DCFDA (Molecular Probes), as previously described.[59] Briefly, after different times of treatment, cells were collected by centrifugation and resuspended in PBS containing H2DCFDA at the concentration of 0.1 μM. The cells were then incubated for 30 min at 37 °C, centrifuged, and resuspended in PBS. The fluorescence was directly recorded with the flow cytometer, using as excitation wavelength 488 nm and emission at 530 nm."}, "Mcl-1": {"system": "Mcl-1", "assay": "Western blot, apoptosis proteins", "settings": "HeLa, 0.1 or 0.5 μM, 24 or 48 h", "procedure": "(§3) To study in greater detail the apoptotic process induced by 66, we evaluated the expression of the cleaved fragment of poly(ADP)ribose polymerase (PARP), a common marker of apoptosis,[66] by Western blot analysis. HeLa cells were treated with compound 66 at 0.1 or 0.5 μM for 24 or 48 h. The cleavage fragment of PARP appeared at 24 h after beginning treatment with only 0.1 μM 66. The expression of two antiapoptotic proteins, Mcl-1 and XIAP, was also studied. Mcl-1, a member of the Bcl-2 family, is highly expressed in many types of tumors and takes part in the apoptotic response to multiple stimuli. […] Similarly, expression of Xiap, a member of the family of inhibitors of apoptosis proteins, was reduced (at 24 h) and diappeared (at 48 h) after HeLa cell treatment with 66 (Figure 9). The functions of this protein are to inhibit the activity of caspase-3, caspase-7, and caspase-9 through a direct interaction with these enzymes. Following this interaction, the entire apoptotic process is inhibited.[69]\nas §2"}, "PARP": {"system": "PARP", "assay": "Western blot, apoptosis proteins", "settings": "HeLa, 24 h, 0.1 μM", "procedure": "as §3, §2"}, "XIAP": {"system": "XIAP", "assay": "Western blot, apoptosis proteins", "settings": "HeLa", "procedure": "as §3, §2"}}, "data": [{"compound": "CCOC(=O)c1cc2c(n1Cc1cccc(OC)c1)-c1oncc1CCC2", "note": "[Compound 63, Ethyl 9-(3-Methoxybenzyl)-4,5,6,9-tetrahydropyrrolo[2′,3′:3,4]cyclohepta[1,2-d][1,2]oxazole-8-carboxylate]", "values": [{"measurement": "GI50", "setting": "UACC-257", "result": 7.61, "unit": "µM"}]}, {"compound": "CCOC(=O)c1cc2c(n1Cc1cc(OC)cc(OC)c1)-c1oncc1CCC2", "note": "[Compound 66, Ethyl 9-(3,5-Dimethoxybenzyl)-4,5,6,9-tetrahydropyrrolo[2′,3′:3,4]cyclohepta[1,2-d][1,2]oxazole-8-carboxylate]", "values": [{"measurement": "total cdc25c expression", "setting": "cdc25c", "result": "strongly reduced"}, {"measurement": "cyclin B1 expression", "setting": "cyclin B1", "result": "substantial increase"}, {"measurement": "expression of phosphorylated cdc2", "setting": "phosphorylated cdc2", "result": "strongly decreased"}, {"measurement": "apoptotic cells", "setting": "HeLa cells [1]; 24 h, 0.5 μM", "result": "significant increase"}, {"measurement": "necrotic cells", "setting": "HeLa cells [1]; 48 h", "result": "substantial increase"}, {"measurement": "percentage of cells with low Δψmt", "setting": "HeLa cells [2]", "result": "significant increase"}, {"measurement": "ROS production", "setting": "HeLa cells [3]", "result": "induced the production of ROS"}, {"measurement": "Mcl-1 levels", "setting": "Mcl-1", "result": "reduction"}, {"measurement": "cleavage fragment of PARP", "setting": "PARP", "result": "appeared"}, {"measurement": "expression of Xiap", "setting": "XIAP; 24 h", "result": "reduced"}, {"measurement": "expression of Xiap", "setting": "XIAP; 48 h", "result": "diappeared"}]}]}
